Assay: kinematic viscosity (ASTM Method D445-97)
Type: physicochemical
Conditions: measured at 100° C.
Procedure: Except as otherwise described, pour point is measured by ASTM Method D97-96a, cloud point is measured by ASTM Method D2500, viscosity/kinematic viscosity is measured by ASTM Method D445-97, viscosity index is measured by ASTM Method D2270-93 (Reapproved 1998), specific gravity is measured by ASTM Method D4052, flash point is measured by ASTM Method D92, evaporative loss is measured by ASTM Method D5800, vapor pressure is measured by ASTM Method D5191, and acute aqueous toxicity is measured by Organization of Economic Cooperation and Development (OECD) 203.

Compound	kinematic viscosity
CCCCC(CC)COC(=O)CCCCCCCCC(COC(=O)C(C)C)OC(=O)C(C)C (centres unmarked) [Example 5]	less than 10 cSt
CCCCC(CC)COC(=O)CCCCCCCCC(COC(C)=O)OC(C)=O (centres unmarked) [Example 4]	less than 10 cSt
